Broadly, the EC50 is the concentration giving half of the maximal effect.

Assay [1] has as its system acetic acid-induced writhing. As to the kind of experiment: Inhibition of acetic acid-induced writhing in mice. The assay is classed as in vivo, Male ICR mice. The conditions noted are these: dose of 10 mg/kg, subcutaneous, 30 min before acetic acid; writhes over 15 min. The source says: 12: 525-562; Ramabadran and Bansinath (1986) Pharm. Res. 3: 263-270]. Intraperitoneal administration of dilute acetic acid solution causes a writhing behavior in mice. A writhe is defined as a contraction of the abdominal muscles accompanied by an extension of the forelimbs and elongation of the body. The number of writhes observed in the presence and absence of test compounds is counted to determine the analgesic activity of the compounds.
Male ICR mice, 20-40 grams in weight, were weighed and placed in individual observation chambers (usually a 4000 ml beaker) with a fine layer of rodent bedding at the bottom. To determine the activity and potency of test compounds, different doses of the compound solution or vehicle were injected subcutaneously in the back of the neck 30 minutes prior to administration of acetic acid solution. After administration of the compound or vehicle control, mice were returned to their individual observation chambers awaiting the intraperitoneal administration of acetic acid solution. Thirty minutes later, 10 ml/kg of a 0.6% (v/v) acetic acid solution was then injected into the right lower quadrant of the abdomen. Immediately after the injection, the mouse was returned to its observation chamber and the recording of the number of writhes is begun immediately. The number of writhes was counted over a 15-min period starting from the time of acetic acid injection. Raw data were analyzed using a one-way ANOVA followed by Dunnett's post-tests.
For dose-response analysis, raw data were converted to % maximum possible effect (% MPE) using the formula: % MPE=((Wc−Wv)/(0−Wv))×100, where Wc is the number of writhes in compound-treated mice and Wv is the mean number of writhes in vehicle-treated mice. The dose which elicited 50% attenuation of hypersensitivity (ED50) was determined using linear regression analysis. (Tallarida & Murray, 1987).
(An intraperitoneal irritant provokes the stretching counted in writhing tests.)

Assay [2] addresses T1, human CB2 receptor (hCB2) (Homo sapiens, UniProt P34972).
T1 construct: host or cells: CHO-K1
The experiment in a line: cAMP assay (LANCE TR-FRET) in CHO-K1 cells stably expressing hCB2. Type of assay: cell-based. The method, then: (§1) The ability of compounds to act as agonists or inverse agonists at human CB2 and CB1 receptors (hCB2, hCB1, respectively) and at the rat CB2 receptor (rCB2) was determined by measuring changes in intracellular cAMP levels. Chinese Hamster Ovary (CHO-K1) cell lines stably expressing hCB2 (Genebank: X74328) or hCB1 (Genebank: X54937) were purchased from Euroscreen (Gosselies, Belgium). The rat CB2 receptor was expressed from genomic DNA (provided by M. Abood, California Pacific Medical Center) in CHO-K1 cells from expression plasmid vector, pcDNA3.1.
(§2) Receptor mediated responses were determined by measuring changes in intracellular cAMP using LANCE cAMP detection kit (cat #AD0264, Perkin Elmer, Wellesley, Mass.) based on time-resolved fluorescence resonance energy transfer (TR-FRET).
(§3) On the day of the experiment, cells were spun at low speed for 5 min at room temperature. […] Cell clumps were removed by filtering through cell strainer 40 μm (BD Falcon, Discovery Labware, Bedford, Mass.) and diluted to 2×10^5 cells/mL. Antibody supplied with the LANCE cAMP immunoassay kit was then added according to the manufacturer's instructions. An aliquot of cells was taken for un-induced controls. […] Cells were then incubated for 30 min at room temperature prior to adding to Proxiplates containing test compounds (final DMSO concentration was less than 0.5%) with a Multidrop bulk dispenser, followed by a sixty minute incubation at room temperature. The response was stopped by addition of the detection mix supplied with the LANCE kit. The reagents were allowed to equilibrate for three hours prior to reading on an Envision multi-mode detector (Perkin-Elmer). TR-FRET was measured using a 330-380 nm excitation filter, a 665 nm emission filter, dichroic mirror 380 nm and Z=1 mm. Cyclic AMP concentrations in each well were back-calculated from a cAMP standard curve run concurrently during each assay. Each plate contained 16 wells of forskolin stimulated cells and 16 wells of forskolin plus CP55,940-treated cells. […] Concentrations of cAMP were expressed as a percent of the difference of these two groups of wells.

In assay [3] the target is human CB1 receptor (hCB1) (Homo sapiens, UniProt P21554). The experiment in a line: cAMP assay (LANCE TR-FRET) in CHO-K1 cells stably expressing hCB1. Type of assay: cell-based. The method, then: as §1, §2, §3
Background: Cyclic AMP is a second messenger, typically raised through Gs and lowered through Gi signalling.

The test system of assay [4] is CFA-induced thermal hyperalgesia. As to the kind of experiment: CFA model of acute inflammation: thermal hyperalgesia (paw withdrawal latency). The assay is classed as in vivo, Male Sprague-Dawley rats. The conditions noted are these: for Attenuation (sec.) of CFA-induced thermal hyperalgesia (mean PWL ± SEM): p.o., vehicle 4.3 ± 0.2, naive 10.3 ± 0.3. The method, then:
The anti-hyperalgesic effects of test compounds in the Complete Freund's Adjuvant (CFA) model of inflammatory pain were examined as described below. Male Sprague-Dawley rats (Hsd:Sprague-Dawley®™SD®™, Harlan, Indianapolis, Ind.) weighing about 200 grams, were housed three per cage. Test compound and ibuprofen (Sigma, cat 11892) were each prepared in a mixture of 1:1:18 ethanol:cremophor EL:water. Groups of six animals were subjected to local inflammation induced by 0.1 mL CFA (Sigma-Aldrich, cat F5881, Mycobacterium tuberculosis 1 mg/ml) injected subcutaneously into the plantar surface of the left paw.
Assessment of thermal hyperalgesia: Paw withdrawal latencies (PWLs) in response to a noxious thermal stimulus (Model #37370, Ugo Basile, Cat #55370) were obtained before and 24 hours after intraplantar administration of CFA. Rats were placed in plexi-glass chambers (10×21×14 cm) on top of a glass platform (un-heated) and allowed to acclimate for approximately 15 min before testing. Each rat received 3 trials separated by approx. 3 min each and these scores were averaged to provide the final PWL. The mean and standard error of the mean (SEM) were determined for the injured paw in each treatment group. Significant reductions in PWLs (i.e., increased sensitivity to a noxious stimulus) were interpreted as the presence of thermal hyperalgesia. To avoid tissue damage, a cut-off latency of 20 seconds was employed. These behavioral assessments were carried-out under blinded conditions (i.e., compound preparation and animal dosing was performed by someone other than the person carrying out the behavioral assessments). Ibuprofen (100 mg/kg, p.o.) was used as the positive control. The mean and SEM were determined for the injured and normal paws for each treatment group. CFA produces a significant increase in sensitivity to noxious thermal stimuli as PWLs decreased from a pre-CFA baseline of 10.3±0.3 sec to a value of 4.3±0.2 sec (p≦0.05, paired t-test). […] Compound 1-10 at a dose of 3 mg/kg produced a significant increase in PWLs (p<0.01, Bonferroni post-test) that persisted for at least 4 hours post-dosing.

Chain of human CB1 receptor (hCB1) (P21554 whole entry): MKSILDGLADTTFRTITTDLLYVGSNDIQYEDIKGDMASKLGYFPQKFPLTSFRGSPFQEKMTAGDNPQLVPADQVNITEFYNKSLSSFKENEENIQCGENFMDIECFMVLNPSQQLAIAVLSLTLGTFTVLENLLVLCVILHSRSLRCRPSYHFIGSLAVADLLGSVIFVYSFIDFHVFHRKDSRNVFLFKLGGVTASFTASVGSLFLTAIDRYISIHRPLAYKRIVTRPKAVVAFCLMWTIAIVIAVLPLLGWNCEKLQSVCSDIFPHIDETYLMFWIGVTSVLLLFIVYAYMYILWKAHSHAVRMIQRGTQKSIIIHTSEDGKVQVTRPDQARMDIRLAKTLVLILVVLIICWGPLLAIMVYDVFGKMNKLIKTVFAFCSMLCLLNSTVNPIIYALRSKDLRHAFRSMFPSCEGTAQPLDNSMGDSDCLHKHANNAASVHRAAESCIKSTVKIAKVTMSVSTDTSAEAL
T1 sequence (P34972 whole entry): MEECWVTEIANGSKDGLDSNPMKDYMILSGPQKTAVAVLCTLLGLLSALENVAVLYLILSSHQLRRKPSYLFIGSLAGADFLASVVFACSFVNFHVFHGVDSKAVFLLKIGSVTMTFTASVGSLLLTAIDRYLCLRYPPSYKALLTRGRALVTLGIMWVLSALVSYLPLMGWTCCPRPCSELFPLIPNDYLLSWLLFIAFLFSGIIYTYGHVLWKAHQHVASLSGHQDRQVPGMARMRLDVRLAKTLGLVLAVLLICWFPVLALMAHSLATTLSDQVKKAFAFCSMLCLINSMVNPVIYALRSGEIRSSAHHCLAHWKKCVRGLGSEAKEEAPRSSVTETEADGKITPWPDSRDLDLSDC

Turning to `CNC(=O)[C@@H](NC(=O)c1nc(-c2ccccc2)n2c1CCCCC2)C(C)(C)C` [Compound 1-1, (S)—N-(3,3-dimethyl-1-(methylamino)-1-oxobutan-2-yl)-3-phenyl-6,7,8,9-tetrahydro-5H-imidazo[1,5-a]azepine-1-carboxamide], the “% maximum possible effect (% MPE), writhing” value (“% maximum possible effect” for short) in assay [1] is “greater than fifty”. Also, the EC50 was in the range of 0.1 to 10 nM in assay [2] and 10 to 100 nM in assay [3].

For `CC(C)Cc1ccc(C(C)C(=O)O)cc1` (centres unmarked) [Ibuprofen, reference compound], the “Attenuation (sec.) of CFA-induced thermal hyperalgesia (mean PWL ± SEM)” value in assay [4] (100 mg/kg, 1 hr) amounted to 7.6 ± 0.7 s; in assay [4] (100 mg/kg, 4 hr) it was 7.7 ± 0.6 s.

Take `CNC(=O)[C@@H](NC(=O)c1nc(-c2ccc(F)c(F)c2)n2c1CCOCC2)C(C)(C)C` [Compound 1-9, (S)-3-(3,4-difluorophenyl)-N-(3,3-dimethyl-1-(methyl-amino)-1-oxobutan-2-yl)-5,6,8,9-tetrahydroimidazo[1,5-d][1,4]oxazepine-1-carboxamide]: in assay [1], the “% maximum possible effect” value was “greater than fifty”. Also, the concentration for a half-maximal effect (EC50) in assay [2] was in the range of 0.1 to 10 nM; in assay [3] it was 10 to 100 nM.

For `CNC(=O)[C@@H](NC(=O)c1nc(-c2ccc(F)c(F)c2)n2c1CCCCC2)C(C)(C)C` [Compound 1-2, (S)-3-(3,4-difluorophenyl)-N-(3,3-dimethyl-1-(methylamino)-1-oxobutan-2-yl)-6,7,8,9-tetrahydro-5H-imidazo[1,5-a]azepine-1-carboxamide], in assay [1], the “% maximum possible effect” value is “greater than fifty”. Moreover, the concentration giving a half-maximal response (EC50) in assay [2] and in assay [3] was 0.1 to 10 nM throughout.

For the molecule `CNC(=O)[C@@H](NC(=O)c1nc(-c2ccc(F)c(F)c2)n2c1COCCC2)C(C)(C)C` [Compound 1-10, (S)-3-(3,4-difluorophenyl)-N-(3,3-dimethyl-1-(methylamino)-1-oxobutan-2-yl)-5,6,7,9-tetrahydroimidazo[5,1-c][1,4]oxazepine-1-carboxamide], the “Persistence of significant increase in PWLs post-dosing” value in assay [4] (3 mg/kg p.o., p<0.01, Bonferroni post-test) was “at least 4 hours”. In addition, the “Attenuation (sec.) of CFA-induced thermal hyperalgesia (mean PWL ± SEM)” value worked out at 6.5 ± 0.5 s in assay [4] (3 mg/kg, 1 hr) and 6.3 ± 0.3 s in assay [4] (3 mg/kg, 4 hr). Moreover, in assay [4] (oral (p.o.) administration), the “Reversal of CFA-induced thermal hyperalgesia” value was “significant reversal”. In addition, the EC50 in assay [2] and in assay [3] was 10 to 100 nM throughout.

Take `CNC(=O)[C@@H](NC(=O)c1nc(-c2cc(F)ccc2F)n2c1CCCCC2)C(C)(C)C` [Compound 1-3, (S)-3-(2,5-difluorophenyl)-N-(3,3-dimethyl-1-(methyl-amino)-1-oxobutan-2-yl)-6,7,8,9-tetrahydro-5H-imidazo[1,5-a]azepine-1-carboxamide]: the “% maximum possible effect” value in assay [1] was “greater than fifty”. In addition, the EC50 in assay [2] and in assay [3] was 0.1 to 10 nM in each case.

(Values after patent US8835422B2, “Substituted imidazoheterocycle derivatives” (Cara Therapeutics, Inc., priority 2008, dated 2014).)
